US20260315487A1, “IKK-ALPHA INHIBITORS” (Cancer Research Technology Limited, priority 2023, published 2026)

How the values were obtained:
IKKβ = target: T1, IKKβ (Homo sapiens, UniProt O14920); test: in-house DELFIA kinase assay, IKKβ; assay type: biochemical
T1 sequence (O14920 1-756): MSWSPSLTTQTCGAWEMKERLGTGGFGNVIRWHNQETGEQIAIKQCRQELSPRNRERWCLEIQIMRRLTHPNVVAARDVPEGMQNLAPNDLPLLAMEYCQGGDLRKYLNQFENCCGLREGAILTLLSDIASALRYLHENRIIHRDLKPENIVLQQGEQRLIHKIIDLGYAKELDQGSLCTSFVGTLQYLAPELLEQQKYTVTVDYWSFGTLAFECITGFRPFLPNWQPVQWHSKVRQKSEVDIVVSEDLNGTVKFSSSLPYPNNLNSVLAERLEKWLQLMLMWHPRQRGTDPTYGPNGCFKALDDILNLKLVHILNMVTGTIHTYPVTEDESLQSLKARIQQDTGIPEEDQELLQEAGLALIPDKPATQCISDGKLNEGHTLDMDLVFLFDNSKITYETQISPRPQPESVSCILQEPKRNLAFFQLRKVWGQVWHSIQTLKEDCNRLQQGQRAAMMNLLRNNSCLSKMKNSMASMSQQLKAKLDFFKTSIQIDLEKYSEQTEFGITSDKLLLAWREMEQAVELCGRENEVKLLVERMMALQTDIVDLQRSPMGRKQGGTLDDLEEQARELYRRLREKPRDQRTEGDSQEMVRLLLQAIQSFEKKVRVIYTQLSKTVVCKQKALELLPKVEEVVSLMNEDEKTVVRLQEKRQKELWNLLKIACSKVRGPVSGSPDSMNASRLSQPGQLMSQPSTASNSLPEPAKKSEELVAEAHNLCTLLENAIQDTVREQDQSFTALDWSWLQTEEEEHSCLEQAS
From the text: (§1) To examine the pyrrolo[2,3 -b]pyridines as an alternative scaffold, we adopted the AIPP core because it had similar dimensions to 1 SU909, with HBD/HBA motifs positioned at the scaffold extremities to interact with both the hinge region and the G-loop wall of IKKα, a rationale we had previously proposed as the basis for imparting selectivity. A preliminary set of AIPP derivatives was designed to explore its utility as an IKK-targeting scaffold, whilst incorporating additional functionality through which to introduce selectivity for the IKKα isoform (2-4 SU1087, SU1266 and SU1253; FIG. 3). This was achieved by initially adopting two different approaches: either appending a hydrophobic moiety to the pyrrolo[2,3 -b]pyridine motif as a fused form to afford the tricyclic derivatives 2 and 3 SU1266 and SU1087, or as a phenyl substituent to introduce flexibility with the central pyrrolo[2,3 -b]pyridine moiety in 4 SU1253 .

IKKα = target: T2, IKKα (Homo sapiens, UniProt O15111); test: in-house DELFIA kinase assay, IKKα; assay type: biochemical
T2 sequence (O15111 1-745): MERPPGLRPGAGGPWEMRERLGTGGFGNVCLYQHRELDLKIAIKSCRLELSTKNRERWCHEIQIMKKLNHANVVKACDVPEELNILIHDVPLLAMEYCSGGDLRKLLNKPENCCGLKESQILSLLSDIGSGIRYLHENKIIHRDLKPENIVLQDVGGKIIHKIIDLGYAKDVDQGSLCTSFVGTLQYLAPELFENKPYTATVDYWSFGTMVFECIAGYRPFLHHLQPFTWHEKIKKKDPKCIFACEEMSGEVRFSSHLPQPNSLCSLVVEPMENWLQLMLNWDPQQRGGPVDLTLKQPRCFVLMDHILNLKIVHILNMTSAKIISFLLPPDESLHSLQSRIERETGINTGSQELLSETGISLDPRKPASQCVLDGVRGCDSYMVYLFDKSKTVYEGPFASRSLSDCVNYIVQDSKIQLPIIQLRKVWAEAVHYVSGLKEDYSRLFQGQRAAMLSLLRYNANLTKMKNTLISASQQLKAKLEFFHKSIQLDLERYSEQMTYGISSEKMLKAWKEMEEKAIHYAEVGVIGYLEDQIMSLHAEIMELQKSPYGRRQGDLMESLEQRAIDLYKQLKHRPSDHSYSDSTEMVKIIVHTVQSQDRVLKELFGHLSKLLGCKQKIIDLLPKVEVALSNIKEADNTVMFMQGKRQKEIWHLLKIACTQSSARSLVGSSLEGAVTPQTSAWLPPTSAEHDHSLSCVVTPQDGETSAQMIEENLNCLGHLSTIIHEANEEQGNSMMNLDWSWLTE
From the text: as §1, with “SU1253 . […] The pyrrolo[2,3 -b]pyridine was bound to the hinge region in the classical HBA/HBD motif with the GK+3 NH and C═O backbone, whilst the aminoindazole projected towards the top of the pocket to interact with the G-loop (FIG. 4A). […] In both isoforms, the 2 -phenyl moiety was oriented out from the hinge towards the exposed solvent area.” for “SU1253 .”

Compound	Ki (IKKβ)	Ki (IKKα)	IKKβ inhibition, in words (IKKβ)
Nc1n[nH]c2ccc(-c3ccnc4[nH]c5c(c34)CCCC5)cc12 [2 SU1266, 5-(6,7,8,9 -Tetrahydro-5 H-pyrido[2,3-b]indol-4-yl)-1 H-indazol-3-amine]	77 nM	2 nM	
Nc1n[nH]c2ccc(-c3ccnc4[nH]c(-c5ccccc5O)cc34)cc12 [5a SU1354, 2-(4-(3 -Amino-1 H-indazol-5-yl)-1 H-pyrrolo[2,3-b]pyridin-2-yl)phenol]	42 nM	4 nM	
Nc1n[nH]c2ccc(-c3ccnc4[nH]c(-c5cccc(S(=O)(=O)N6CCOCC6)c5)cc34)cc12 [5aa SU1311, 5-(2-(3-(Morpholinosulfonyl)phenyl)-1 H-pyrrolo[2,3-b]pyridin-4-yl)-1 H-indazol-3-amine]	149 nM	25 nM	
Nc1cccc(-c2cc3c(-c4ccc5[nH]nc(N)c5c4)ccnc3[nH]2)c1 [5c SU1304, 5-(2-(3 -Aminophenyl)-1 H-pyrrolo[2,3-b]pyridin-4-yl)-1 H-indazol-3-amine]	28 nM	5 nM	
Nc1n[nH]c2ccc(-c3ccnc4[nH]c(-c5cccc(O)c5)cc34)cc12 [5d SU1348, 3-(4-(3 -Amino-1 H-indazol-5-yl)-1 H-pyrrolo[2,3-b]pyridin-2-yl)phenol]	26 nM	5 nM	
COc1cccc(-c2cc3c(-c4ccc5[nH]nc(N)c5c4)ccnc3[nH]2)c1 [5e SU1332, 5-(2-(3 -Methoxyphenyl)-1 H-pyrrolo[2,3-b]pyridin-4-yl)-1 H-indazol-3-amine]	40 nM	5 nM	
CS(=O)(=O)c1cccc(-c2cc3c(-c4ccc5[nH]nc(N)c5c4)ccnc3[nH]2)c1 [5k SU1374, 5-(2-(3-(Methylsulfonyl)phenyl)-1 H-pyrrolo[2,3-b]pyridin-4-yl)-1 H-indazol-3-amine]	36 nM	3 nM	
Cc1ccc(S(=O)(=O)Nc2cccc(-c3cc4c(-c5ccc6[nH]nc(N)c6c5)ccnc4[nH]3)c2)cc1 [5t SU1278, N-(3-(4-(3 -Amino-1 H-indazol-5-yl)-1 H-pyrrolo[2,3-b]pyridin-2-yl)phenyl)-4-methylbenzensulfonamide]	1050 nM	10 nM	lowest activity against IKKβ
Nc1n[nH]c2ccc(-c3ccnc4[nH]c(-c5cccc(OCc6ccccn6)c5)cc34)cc12 [5w SU1324, 5-(2-(3-(pyridin-2-ylmethoxy)phenyl)-1 H-pyrrolo[2,3-b]pyridin-4-yl)-1 H-indazol-3-amine]	402 nM	16 nM	lowest activity against IKKβ
Nc1n[nH]c2ccc(-c3ccnc4[nH]c(-c5cccc(OCC6CCOCC6)c5)cc34)cc12 [5x SU1335, 5-(2-(3-((Tetrahydro-2 H-pyran-4-yl)methoxy)phenyl)-1 H-pyrrolo[2,3-b]pyridin-4-yl)-1 H-indazol-3-amine]	122 nM	8 nM	good IKKβ inhibition

Further lines, results first:

Ki (IKKβ)	Ki (IKKα)	IKKβ inhibition, in words (IKKβ)	Compound
5 nM	3 nM		Nc1n[nH]c2ccc(-c3ccnc4[nH]c5ccccc5c34)cc12 [3 SU1087, 5-(9 H-pyrido[2,3-b]indol-4-yl)-1 H-indazol-3-amine]
86 nM	8 nM		CCOc1ccccc1-c1cc2c(-c3ccc4[nH]nc(N)c4c3)ccnc2[nH]1 [5b SU1368, 5-(2-(2 -Ethoxyphenyl)-1 H-pyrrolo[2,3-b]pyridin-4-yl)-1 H-indazol-3-amine]
42 nM	4 nM		Nc1n[nH]c2ccc(-c3ccnc4[nH]c(-c5cc(O)cc(F)c5)cc34)cc12 [5f SU1384, 3-(4-(3 -Amino-1 H-indazol-5-yl)-1 H-pyrrolo[2,3-b]pyridin-2-yl)-5-fluorophenol]
32 nM	3 nM		COc1cc(F)cc(-c2cc3c(-c4ccc5[nH]nc(N)c5c4)ccnc3[nH]2)c1 [5g SU1373, 5-(2-(3 -Fluoro-5-methoxyphenyl)-1 H-pyrrolo[2,3-b]pyridin-4-yl)-1 H-indazol-3-amine]
168 nM	8 nM		Nc1n[nH]c2ccc(-c3ccnc4[nH]c(-c5cccc(C(=O)O)c5)cc34)cc12 [5h SU1303, 3-(4-(3 -Amino-1 H-indazol-5-yl)-1 H-pyrrolo[2,3-b]pyridin-2-yl)benzoic acid]
159 nM	5 nM		NC(=O)c1cccc(-c2cc3c(-c4ccc5[nH]nc(N)c5c4)ccnc3[nH]2)c1 [5i SU1294, 3-(4-(3 -Amino-1 H-indazol-5-yl)-1 H-pyrrolo[2,3-b]pyridin-2-yl)benzamide]
109 nM	3 nM		CS(=O)(=O)Nc1cccc(-c2cc3c(-c4ccc5[nH]nc(N)c5c4)ccnc3[nH]2)c1 [5j SU1288, N-(3-(4-(3 -Amino-1 H-indazol-5-yl)-1 H-pyrrolo[2,3-b]pyridin-2-yl)phenyl)methanesulfonamide]
25 nM	6 nM	good IKKβ inhibition	COCCC(=O)Nc1cccc(-c2cc3c(-c4ccc5[nH]nc(N)c5c4)ccnc3[nH]2)c1 [5l SU1317, N-(3-(4-(3 -Amino-1 H-indazol-5-yl)-1 H-pyrrolo[2,3-b]pyridin-2-yl)phenyl)-3-methoxypropanamide]
107 nM	15 nM	good IKKβ inhibition	COCCNC(=O)c1cccc(-c2cc3c(-c4ccc5[nH]nc(N)c5c4)ccnc3[nH]2)c1 [5m SU1316, 3-(4-(3 -Amino-1 H-indazol-5-yl)-1 H-pyrrolo[2,3-b]pyridin-2-yl)-N-(2-methoxyethyl)benzamide]
470 nM	35 nM	lowest activity against IKKβ	Nc1n[nH]c2ccc(-c3ccnc4[nH]c(-c5cccc(CNc6ccccc6)c5)cc34)cc12 [5p SU1549, 5-(2-(3-((Phenylamino)methyl)phenyl)-1 H-pyrrolo[2,3-b]pyridin-4-yl)-1 H-indazol-3-amine]
1060 nM	57 nM	lowest activity against IKKβ	Nc1n[nH]c2ccc(-c3ccnc4[nH]c(-c5ccccc5OCc5ccccc5)cc34)cc12 [5q SU1353, 5-(2-(2-(Benzyloxy)phenyl)-1 H-pyrrolo[2,3-b]pyridin-4-yl)-1 H-indazol-3-amine]
215 nM	24 nM		CN1CCN(C(=O)c2cccc(-c3cc4c(-c5ccc6[nH]nc(N)c6c5)ccnc4[nH]3)c2)CC1 [5v SU1312, (3-(4-(3 Amino-1 H-indazol-5-yl)-1 H-pyrrolo[2,3-b]pyridin-2-yl)phenyl)(4-methylpiperazin-1-y)methanone]
